From patent US10681909B2, “Herbicidal triazoles” (FMC Corporation, priority 2014, dated 2020)

How the values were obtained:
wheat = test: Test A postemergence; format: in vivo, Triticum aestivum; settings: Triticum aestivum, post-emergence, 240 h, 0 to 100 scale (0 no effect, 100 complete control), approx. 10 d, read-out: Plant response rating, Wheat
Summary of the method: (§1)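 For preemergence, seeds were sown in a loam soil-sand blend and given a directed soil spray of test chemical in a non-phytotoxic solvent mixture with surfactant. For postemergence, plants in pots of the same blend were sprayed with the same formulation at the one- to two-leaf stage, 2 to 10 cm tall.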

foxtail, giant [1] = test: Test A postemergence; format: in vivo, Setaria faberii; settings: Setaria faberi, post-emergence, 240 h, 0 to 100 scale (0 no effect, 100 complete control), approx. 10 d, read-out: Plant response rating, Foxtail, Giant
Summary of the method: as §1

barnyardgrass [2] = test: Test A preemergence; format: in vivo, Echinochloa crus-galli; settings: Echinochloa crus-galli, pre-emergence, 240 h, 0 to 100 scale (0 no effect, 100 complete control), read-out: Plant response rating, Barnyardgrass
Summary of the method: as §1

barnyardgrass [3] = test: Test A postemergence; format: in vivo, Echinochloa crus-galli; settings: Echinochloa crus-galli, post-emergence, 240 h, 0 to 100 scale (0 no effect, 100 complete control), approx. 10 d, read-out: Plant response rating, Barnyardgrass
Summary of the method: as §1

foxtail, giant [4] = test: Test A preemergence; format: in vivo, Setaria faberii; settings: Setaria faberi, pre-emergence, 240 h, 0 to 100 scale (0 no effect, 100 complete control), read-out: Plant response rating, Foxtail, Giant
Summary of the method: as §1

pigweed = test: Test A postemergence; format: in vivo, Amaranthus retroflexus; settings: Amaranthus retroflexus, post-emergence, 240 h, 0 to 100 scale (0 no effect, 100 complete control), approx. 10 d, read-out: Plant response rating, Pigweed
Summary of the method: as §1

Structure (SMILES): Cn1nc(-c2ccc(F)cc2)nc1Oc1cccc(C(F)(F)F)c1 [Compound 5, 3-(4-fluorophenyl)-1-methyl-5-[3-(trifluoromethyl)phenoxy]-1H-1,2,4-triazole]
- plant injury at 125 g/ha (wheat; 125 g ai/ha): 0%
- plant injury at 500 g/ha (wheat; 500 g ai/ha): 10%
- pest or weed control at 125 g/ha (foxtail, giant [1]; 125 g ai/ha): 20%
- pest or weed control at 500 g/ha (foxtail, giant [1]; 500 g ai/ha): 70%
- pest or weed control at 125 g/ha (barnyardgrass [2]; 125 g ai/ha): 0%
- pest or weed control at 500 g/ha (barnyardgrass [2]; 500 g ai/ha, approx. 10 d): 20%
- pest or weed control at 125 g/ha (barnyardgrass [3]; 125 g ai/ha): 10%
- pest or weed control at 500 g/ha (barnyardgrass [3]; 500 g ai/ha): 30%
- pest or weed control at 125 g/ha (foxtail, giant [4]; 125 g ai/ha): 60%
- pest or weed control at 500 g/ha (foxtail, giant [4]; 500 g ai/ha, approx. 10 d): 90%
- pest or weed control at 125 g/ha (pigweed; 125 g ai/ha): 90%
- pest or weed control at 500 g/ha (pigweed; 500 g ai/ha): 100%
